Results: patent publication US8507510B2, “Sulfoximine-substituted pyrimidines as CDK- and/or VEGF inhibitors, their production and use as pharmaceutical agents” (Bayer Intellectual Property GmbH, priority 2003, dated 2013)

Assays:
[1] = tested on: MCF7; assay: Proliferation assay, MCF7; format: cell-based, human; conditions: MCF7 cells, 4 days, crystal violet
Description: (§1) Cultivated human tumor cells (MCF7, […] human breast cancer cells, related to ATCC HTB22; NCI-H460, human non-small-cell lung cancer cells, ATCC HTB-177, HCT 116, human colon cancer cells, ATCC CCL-247; DU 145, hormone-independent human prostate cancer cells, ATCC HTB-81; MaTu-MDR, hormone-independent, multiple pharmaceutical agent-resistant human breast cancer cells, EPO-GmbH, Berlin) were flattened out at a density of about 5000 cells/measuring point, depending on the growth rate of the respective cells, in a 96-well multititer plate in 200 μl of the corresponding growth medium. After 24 hours, the cells of one plate (zero-point plate) were colored with crystal violet (see below), while the medium of the other plates was replaced by fresh culture medium (200 μl), to which the test substances were added in various concentrations (0 μm, as well as in the range of 0.01-30 μm; the final concentration of the solvent dimethyl sulfoxide was 0.5%). The cells were incubated for 4 days in the presence of test substances. The cell proliferation was determined by coloring the cells with crystal violet: the cells were fixed by adding 20 μl/measuring point of an 11% glutaric aldehyde solution for 15 minutes at room temperature. After three washing cycles of the fixed cells with water, the plates were dried at room temperature. The cells were colored by adding 100 μl/measuring point of a 0.1% crystal violet solution (the pH was set at 3 by adding acetic acid). After three washing cycles of the colored cells with water, the plates were dried at room temperature. The dye was dissolved by adding 100 μl/measuring point of a 10% acetic acid solution. The extinction was determined by photometry at a wavelength of 595 nm The change of cell growth, in percent, was calculated by normalization of the measured values to the extinction values of the zero-point plate (=0%) and the extinction of the untreated (0 μm) cells (=100%).

[2] = tested on: DU145; assay: Proliferation assay, DU145; format: cell-based, human; conditions: DU145 cells, 4 days, crystal violet
Description: as §1

[3] = tested on: MaTu-ADR; assay: Proliferation assay, MaTu-ADR; format: cell-based, human; conditions: MaTu-ADR cells, 4 days, crystal violet
Description: as §1

[4] = tested on: H460; assay: Proliferation assay, H460; format: cell-based, human; conditions: H460 cells, 4 days, crystal violet
Description: as §1

[5] = molecular target: CDK2/CycE (Homo sapiens (Human), UniProt P24941); assay: CDK2/CycE kinase assay; format: biochemical; conditions: histone IIIS substrate, 0.5 μm ATP
Procedure: Recombinant CDK2- and CycE-GST-fusion proteins, purified from baculovirus-infected insect cells (Sf9), were purchased by ProQinase GmbH, Freiburg. Histone IIIs, which was used as a kinase substrate, was purchased by the Sigma Company.
CDK2/CycE (50 ng/measuring point) was incubated for 15 minutes at 22° C. in the presence of various concentrations of test substances (0 μm, as well as within the range of 0.01-100 μm) in assay buffer [50 mmol of tris/HCl, pH 8.0, 10 mmol of MgCl2, 0.1 mmol of Na ortho-vanadate, 1.0 mmol of dithiothreitol, 0.5 μm of adenosine triphosphate (ATP), 10 μg/measuring point of histone IIIS, 0.2 μCi/measuring point of ^33P-gamma ATP, 0.05% NP40, 12.5% dimethyl sulfoxide]. The reaction was stopped by adding EDTA solution (250 mmol, pH 8.0, 14 μl/measuring point).
From each reaction batch, 10 μl was applied to P30 filter strips (Wallac Company), and non-incorporated ^33P-ATP was removed by subjecting the filter strips to three washing cycles for 10 minutes each in 0.5% phosphoric acid. After the filter strips were dried for one hour at 70° C., the filter strips were covered with scintillator strips (MeltiLex™ A, Wallac Company) and baked for one hour at 90° C. The amount of incorporated ^33P (substrate phosphorylation) was determined by scintillation measurement in a gamma-radiation measuring device (Wallac).

SMILES | IC50 [1] | IC50 ([2]; Homo sapiens, DU-145, 96 h) | IC50 ([1]; Homo sapiens, MCF7, 96 h) | other results
CN=S(C)(=O)c1ccc(Nc2ncc(Br)c(N[C@H](C)[C@@H](C)O)n2)cc1 (mixture of isomers) [Example 1.29, (RS)-S-[4-({5-bromo-4-[(1R,2R)-(2-hydroxy-1-methylpropyl)amino]pyrimidin-2-yl}amino)phenyl]-N,S-dimethyl-sulfoximide] | 170 nM |  |  | 
CN=S(C)(=O)c1ccc(Nc2ncc(Br)c(N[C@H](C)[C@@H](C)O)n2)cc1 (mixture of isomers) [Example 1.30, (RS)-S-[4-({5-bromo-4-[(1R,2R)-(2-hydroxy-1-methylpropyl)amino]pyrimidin-2-yl}amino)phenyl]-N,S-dimethyl-sulfoximide] | 170 nM |  |  | 
COC[C@@H](Nc1nc(Nc2ccc(S(C)(=N)=O)cc2)ncc1Br)[C@@H](C)O (mixture of isomers) [Example 1.46, (RS)-S-{4-[(5-bromo-4-{[(1R,2R)-2-hydroxy-1-(methoxymethyl)-propyl]amino}pyrimidin-2-yl)amino]phenyl}-S-methyl sulfoximide] |  | 170 nM | 200 nM | IC50 ([3]; Homo sapiens, 96 h): 200 nM; IC50 ([4]; Homo sapiens, NCI-H460, 96 h): 110 nM
C[C@@H](O)[C@@H](C)Nc1nc(Nc2ccc(S(=N)(=O)CCO)cc2)ncc1Br (mixture of isomers) [Example 1.18, (RS)-S-[4-({5-bromo-4-[(1R,2R)-(2-hydroxy-1-methyl-propyl)amino]pyrimidin-2-yl}amino)phenyl]-S-(2-hydroxyethyl)sulfoximide] |  |  | < 100 nM | 
C[C@@H](O)[C@@H](C)Nc1nc(Nc2ccc(S(=N)(=O)CCO)cc2)ncc1Br (single isomer, unassigned) [Example 1.19] |  |  | < 100 nM | 
C[C@@H](Nc1nc(Nc2ccc(S(=N)(=O)CCO)cc2)ncc1Br)C(C)(C)O (mixture of isomers) [Example 1.14, (RS)-S-[4-({5-bromo-4-[(R)-(2-hydroxy-1,2-dimethylpropyl)amino]pyrimidin-2-yl}amino)phenyl]-S-(2-hydroxyethyl)-sulfoximide] |  | 90 nM |  | IC50 ([3]; Homo sapiens, 96 h): 110 nM
COc1cc(Nc2ncc(Br)c(N[C@H](C)[C@@H](C)O)n2)ccc1S(C)(=N)=O (single isomer, unassigned) [Example 1.27] |  | 130 nM | 60 nM | IC50 ([4]; Homo sapiens, NCI-H460, 96 h): 20 nM
COc1cc(Nc2ncc(Br)c(N[C@H](C)[C@@H](C)O)n2)ccc1S(C)(=N)=O (mixture of isomers) [Example 1.26, (RS)-S-[4-({5-bromo-4-[(1R,2R)-(2-hydroxy-1-methylpropyl)amino]pyrimidin-2-yl}amino)-2-methoxyphenyl]-S-methyl sulfoximide] | 60 nM |  |  | 
C[C@@H](Nc1nc(Nc2ccc(S(C)(=N)=O)cc2)ncc1Br)C(C)(C)O (single isomer, unassigned) [Example 1.42] |  | 170 nM | 150 nM | IC50 ([3]; Homo sapiens, 96 h): < 100 nM; IC50 ([4]; Homo sapiens, NCI-H460, 96 h): < 100 nM
Cc1cc(Nc2ncc(Br)c(N[C@H](C)C(C)(C)O)n2)ccc1S(C)(=N)=O (mixture of isomers) [Example 1.57, (RS)—S-[4-({5-bromo-4-[(R)-(2-hydroxy-1,2-dimethylpropyl)amino]pyrimidin-2-yl}amino)-2-methylphenyl]-S-methyl sulfoximide] |  |  |  | IC50 [2]: 110 nM; IC50 [3]: 90 nM; IC50 [4]: 120 nM

Now from value to compound, other results behind:

IC50 [1] | IC50 ([2]; Homo sapiens, DU-145, 96 h) | IC50 ([1]; Homo sapiens, MCF7, 96 h) | SMILES | other results
< 100 nM |  |  | CCS(=N)(=O)c1ccc(Nc2ncc(Br)c(N[C@H](C)[C@@H](C)O)n2)cc1 (mixture of isomers) [Example 1.52, (RS)-S-[4-({5-bromo-4-[(1R,2R)-(2-hydroxy-1-methylpropyl)amino]pyrimidin-2-yl}amino)phenyl]-S-ethyl sulfoximide] | 
 |  | 300 nM | CCS(=N)(=O)c1ccc(Nc2ncc(Br)c(N[C@H](C)[C@@H](C)O)n2)cc1 (single isomer, unassigned) [Example 1.53] | IC50 [5]: 4 nM
 |  | 20 nM | CCS(=N)(=O)c1ccc(Nc2ncc(Br)c(N[C@H](C)C(C)(C)O)n2)cc1 (single isomer, unassigned) [Example 1.56] | IC50 ([3]; Homo sapiens, 96 h): 50 nM; IC50 ([4]; Homo sapiens, NCI-H460, 96 h): 100 nM
 |  | 300 nM | CCS(=N)(=O)c1ccc(Nc2ncc(Br)c(N[C@H](COC)[C@@H](C)O)n2)cc1 (mixture of isomers) [Example 1.48, (RS)—S-{4-[(5-bromo-4-{[(1R,2R)-2-hydroxy-1-(methoxymethyl)-propyl]amino}pyrimidin-2-yl)amino]phenyl}-S-ethyl sulfoximide] | 
 | 600 nM | 600 nM | COC[C@@H](Nc1nc(Nc2ccc(S(C)(=N)=O)cc2)ncc1Br)[C@@H](C)O (single isomer, unassigned) [Example 1.47] | IC50 [5]: 6 nM; IC50 ([3]; Homo sapiens, 96 h): 800 nM; IC50 ([4]; Homo sapiens, NCI-H460, 96 h): 600 nM
 | < 100 nM | 110 nM | Cc1cc(Nc2ncc(Br)c(N[C@H](C)C(C)(C)O)n2)ccc1S(C)(=N)=O (single isomer, unassigned) [Example 1.59] | IC50 ([3]; Homo sapiens, 96 h): < 100 nM; IC50 ([4]; Homo sapiens, NCI-H460, 96 h): < 100 nM
110 nM | 190 nM |  | CCS(=N)(=O)c1ccc(Nc2ncc(Br)c(N[C@H](C)C(C)(C)O)n2)cc1 (mixture of isomers) [Example 1.54, (RS)—S-[4-({5-bromo-4-[(R)-(2-hydroxy-1,2-dimethylpropyl)amino]pyrimidin-2-yl}amino)phenyl]-S-ethyl sulfoximide] | IC50 [4]: 120 nM
60 nM |  |  | Cc1cc(Nc2ncc(Br)c(N[C@H](C)C(C)(C)O)n2)ccc1S(C)(=N)=O (mixture of isomers) [Example 1.58, (RS)-S-[4-({5-bromo-4-[(R)-(2-hydroxy-1,2-dimethylpropyl)amino]pyrimidin-2-yl}amino)-2-methylphenyl]-S-methyl sulfoximide] | IC50 [2]: 30 nM; IC50 [3]: 40 nM; IC50 [4]: 30 nM
300 nM |  |  | CCS(=N)(=O)c1ccc(Nc2ncc(Br)c(N[C@H](COC)[C@@H](C)O)n2)cc1 (mixture of isomers) [Example 1.49, (RS)-S-{4-[(5-bromo-4-{[(1R,2R)-2-hydroxy-1-(methoxymethyl)-propyl]amino}pyrimidin-2-yl)amino]phenyl}-S-ethyl sulfoximide] | IC50 [2]: 300 nM; IC50 [3]: 600 nM; IC50 [4]: 400 nM
 |  | 80 nM | CCS(=N)(=O)c1ccc(Nc2ncc(Br)c(N[C@H](C)[C@@H](C)O)n2)cc1 (mixture of isomers) [Example 1.51, (RS)—S-[4-({5-bromo-4-[(1R,2R)-(2-hydroxy-1-methylpropyl)amino]pyrimidin-2-yl}amino)phenyl]-S-ethyl sulfoximide] | 
 |  | 1200 nM | CCS(=N)(=O)c1ccc(Nc2ncc(Br)c(N[C@H](COC)[C@@H](C)O)n2)cc1 (single isomer, unassigned) [Example 1.50] | 
300 nM |  |  | CCS(=N)(=O)c1ccc(Nc2ncc(Br)c(N[C@H](C)C(C)(C)O)n2)cc1 (mixture of isomers) [Example 1.55, (RS)-S-[4-({5-bromo-4-[(R)-(2-hydroxy-1,2-dimethylpropyl)amino]pyrimidin-2-yl}amino)phenyl]-S-ethyl sulfoximide] | IC50 [2]: 300 nM; IC50 [3]: 150 nM; IC50 [4]: 300 nM
